# Molecular target: T1, Toll-like receptor 9 (Homo sapiens, UniProt Q9NR96)
# T1 sequence (Q9NR96 whole entry): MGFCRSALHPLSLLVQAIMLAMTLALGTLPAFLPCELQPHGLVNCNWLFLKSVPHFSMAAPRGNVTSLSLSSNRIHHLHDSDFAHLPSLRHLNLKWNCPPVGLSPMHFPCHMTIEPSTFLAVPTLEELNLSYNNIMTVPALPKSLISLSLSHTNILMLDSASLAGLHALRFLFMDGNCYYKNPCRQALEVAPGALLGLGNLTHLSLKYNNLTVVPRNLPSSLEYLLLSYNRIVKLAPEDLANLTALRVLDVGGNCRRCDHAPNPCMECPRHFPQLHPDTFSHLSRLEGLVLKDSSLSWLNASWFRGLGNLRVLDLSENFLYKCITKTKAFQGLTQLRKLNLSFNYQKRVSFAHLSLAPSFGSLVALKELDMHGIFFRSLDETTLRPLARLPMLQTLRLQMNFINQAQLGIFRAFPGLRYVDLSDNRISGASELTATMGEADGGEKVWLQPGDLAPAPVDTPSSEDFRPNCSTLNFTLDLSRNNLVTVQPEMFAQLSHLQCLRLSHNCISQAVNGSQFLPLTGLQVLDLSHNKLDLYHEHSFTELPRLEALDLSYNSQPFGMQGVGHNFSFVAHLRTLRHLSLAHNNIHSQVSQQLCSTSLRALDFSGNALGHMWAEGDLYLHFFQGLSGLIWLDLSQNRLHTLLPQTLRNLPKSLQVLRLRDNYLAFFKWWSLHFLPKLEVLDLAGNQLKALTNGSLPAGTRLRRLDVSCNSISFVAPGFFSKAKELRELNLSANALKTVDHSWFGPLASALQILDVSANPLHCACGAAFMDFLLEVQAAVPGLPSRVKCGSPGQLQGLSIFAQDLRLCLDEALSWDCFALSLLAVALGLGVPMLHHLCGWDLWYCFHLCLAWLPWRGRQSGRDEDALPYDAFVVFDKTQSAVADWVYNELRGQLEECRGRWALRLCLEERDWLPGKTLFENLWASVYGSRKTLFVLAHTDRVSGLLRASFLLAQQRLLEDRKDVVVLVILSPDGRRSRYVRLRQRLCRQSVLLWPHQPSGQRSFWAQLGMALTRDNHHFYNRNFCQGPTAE
# Assay: TLR9 Antagonism Assay: Day 1: A cell suspension of HEK-Blue™-hTLR9 cells at ~450,000 cells per ml in test medium which contained 5% (v/v) heat inactivated FBS was prepared. 180 μl of cell suspension (~80,000 cells) was added per well of a flat-bottom 96-well plate and place in an incubator at 37° C. for overnight. Day 2: Test compounds were serially diluted in test medium, generally starting at 10 μM, and diluting by 3 fold in a 96 well master plate. 20 μl of diluted test compound was transferred using a 12 channel multi-channel pipet to the cell plate and incubated at 37° C. for 1 hour. Then 20 μl of an hTLR9 agonist (such as ODN 2006, 1 μM) was added to each well and the plate incubated at 37° C. overnight. Day 3: Invivogen's QUANTI-Blue™ was prepared following the manufacturer's instructions. […] of resuspended QUANTI-Blue™ was added per well of a flat bottom 96-well plate. 20 μl per well of induced HEK-Blue™-hTLR9 cells supernatant was then added to the plate and the plate was incubated at 37° C. for 1-3 h. SEAP levels were determined using a spectrophotometer at 620 nm.
row,SMILES,IC50
1,CCCCSc1nc(NCCN2CCOCC2)c2nc(O)n(CCN3CCOCC3)c2n1,11.1 µM
2,c1ccc(-c2nc(NCCN3CCOCC3)c3ncn(CCN4CCOCC4)c3n2)cc1,7.53 µM
3,Oc1nc2c(NCCN3CCOCC3)nc(-c3ccccc3)nc2n1CCN1CCOCC1,8.01 µM
4,CCOC(=O)Cn1cnc2c(NCCN3CCOCC3)nc(-c3ccc(N4CCN(C)CC4)cc3)nc21,5.2 µM

# These reach a lower IC50. Values come first.
row,IC50,SMILES
1,3.29 µM,CN1CCN(CCNc2nc(-c3ccccc3)nc3c2ncn3CCN2CCOCC2)CC1
2,0.604 µM,CN1CCN(CCNc2nc(-c3ccccc3)nc3c2ncn3CCN2CCN(C)CC2)CC1
3,0.142 µM,CCN1CCN(c2ccc(-c3nc(NCCN4CCOCC4)c4nc[nH]c4n3)cc2)CC1
4,0.072 µM,CN1CCN(c2ccc(-c3nc(NCCN4CCOCC4)c4nc[nH]c4n3)cc2)CC1

# Reference: ChEMBL document CHEMBL3886743, “Immune system modulators” (2016)
